Laboratory results: US20260262643A1, “HERBICIDAL BENZOXAZINES” (FMC CORPORATION, priority 2022, published 2026)

Experiments:
barnyardgrass [1] = assay: Test A preemergence; assay type: in vivo, Echinochloa crusgalli; details: visual injury after 10 days, 0 to 100 scale, 0 is no effect, 100 is complete control
Source text: (§1) Seeds of plant species selected from barnyardgrass (Echinochloa crusgalli), blackgrass (Alopecurus myosuroides), corn (Zea mays), foxtail, giant (giant foxtail, Setaria faberi), goosegrass (Eleusine indica), kochia (Bassia scoparia), oat, wild (wild oat, Avena fatua), pigweed, palmer (palmer amaranth, palmer pigweed, Amaranthus palmeri), Pigweed, Redroot (redroot pigweed, Amaranthus retroflexus), ragweed (common ragweed, Ambrosia artemisiifolia), ryegrass, Italian (italian ryegrass, Lolium multiflorum), soybean (Glycine max), and wheat (Triticum aestivum) were planted into a blend of loam soil and sand and treated preemergence with a directed soil spray using test chemicals formulated in a non-phytotoxic solvent mixture which included a surfactant. At the same time, plants selected from these crops and weed species and also galium (catchweed bedstraw, Galium aparine) and horseweed (Erigeron canadensis) were planted in pots containing the same blend of loam soil and sand and treated with postemergence applications of test chemicals formulated in the same manner. Plants ranged in height from 2 to 10 cm and were in the one- to two-leaf stage for the postemergence treatment. Treated plants and untreated controls were maintained in a greenhouse for 10 days, after which time all treated plants were compared to untreated controls and visually evaluated for injury. Plant response ratings, summarized in Table A, are based on a 0 to 100 scale where 0 is no effect and 100 is complete control. A dash (-) response means no test result.

blackgrass [2] = assay: Test A preemergence; assay type: in vivo, Alopecurus myosuroides; details: 0 to 100 scale
Method in brief: (§2)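 Visual injury ratings on a 0–100 scale (100 = complete control) versus untreated controls, taken 10 days after treatment in greenhouse. Preemergence: directed soil spray onto seeded loam/sand. Postemergence: foliar application at one- to two-leaf stage, plants 2–10 cm. Formulation: non-phytotoxic solvent plus surfactant.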

corn [3] = assay: Test A preemergence; assay type: in vivo, Zea mays; details: 0 to 100 scale
Method in brief: as §2

foxtail, giant = assay: Test A preemergence; assay type: in vivo, Setaria faberi; details: 0 to 100 scale
Method in brief: as §2

kochia [4] = assay: Test A preemergence; assay type: in vivo, Bassia scoparia; details: 0 to 100 scale
Method in brief: as §2

oat, wild [5] = assay: Test A preemergence; assay type: in vivo, Avena fatua; details: 0 to 100 scale
Method in brief: as §2

pigweed, palmer [6] = assay: Test A preemergence; assay type: in vivo, Amaranthus palmeri; details: 0 to 100 scale
Method in brief: as §2

ragweed [7] = assay: Test A preemergence; assay type: in vivo, Ambrosia artemisiifolia; details: 0 to 100 scale
Method in brief: as §2

ryegrass, Italian [8] = assay: Test A preemergence; assay type: in vivo, Lolium multiflorum; details: 0 to 100 scale
Method in brief: as §2

soybean [9] = assay: Test A preemergence; assay type: in vivo, Glycine max; details: 0 to 100 scale
Method in brief: as §2

wheat [10] = assay: Test A preemergence; assay type: in vivo, Triticum aestivum; details: 0 to 100 scale
Method in brief: as §2

barnyardgrass [11] = assay: Test A postemergence; assay type: in vivo, Echinochloa crusgalli; details: postemergence, 10 days; for Barnyardgrass plant response rating: 125 g ai/ha, 0 to 100 scale, 0 no effect, 100 complete control; for Plant response rating, Barnyardgrass: 500 g ai/ha, visual injury, 0 to 100 scale (0 no effect, 100 complete control)
Source text: as §1

blackgrass [12] = assay: Test A postemergence; assay type: in vivo, Alopecurus myosuroides; details: postemergence, 10 days; for Blackgrass plant response rating: 125 g ai/ha, 0 to 100 scale, 0 no effect, 100 complete control; for Plant response rating, Blackgrass: 500 g ai/ha, visual injury, 0 to 100 scale (0 no effect, 100 complete control)
Method in brief: as §2

corn [13] = assay: Test A postemergence; assay type: in vivo, Zea mays; details: postemergence, 10 days; for Corn plant response rating: 125 g ai/ha, 0 to 100 scale, 0 no effect, 100 complete control; for Plant response rating, Corn: 500 g ai/ha, visual injury, 0 to 100 scale (0 no effect, 100 complete control)
Method in brief: as §2

kochia [14] = assay: Test A postemergence; assay type: in vivo, Bassia scoparia; details: postemergence, 10 days; for Kochia plant response rating: 125 g ai/ha, 0 to 100 scale, 0 no effect, 100 complete control; for Plant response rating, Kochia: 500 g ai/ha, visual injury, 0 to 100 scale (0 no effect, 100 complete control)
Method in brief: as §2

oat, wild [15] = assay: Test A postemergence; assay type: in vivo, Avena fatua; details: postemergence, 10 days; for Oat, Wild plant response rating: 125 g ai/ha, 0 to 100 scale, 0 no effect, 100 complete control; for Plant response rating, Oat, Wild: 500 g ai/ha, visual injury, 0 to 100 scale (0 no effect, 100 complete control)
Method in brief: as §2

pigweed, palmer [16] = assay: Test A postemergence; assay type: in vivo, Amaranthus palmeri; details: postemergence, 10 days; for Pigweed, Palmer plant response rating: 125 g ai/ha, 0 to 100 scale, 0 no effect, 100 complete control; for Plant response rating, Pigweed, Palmer: 500 g ai/ha, visual injury, 0 to 100 scale (0 no effect, 100 complete control)
Method in brief: as §2

ragweed [17] = assay: Test A postemergence; assay type: in vivo, Ambrosia artemisiifolia; details: postemergence, 10 days; for Ragweed plant response rating: 125 g ai/ha, 0 to 100 scale, 0 no effect, 100 complete control; for Plant response rating, Ragweed: 500 g ai/ha, visual injury, 0 to 100 scale (0 no effect, 100 complete control)
Method in brief: as §2

ryegrass, Italian [18] = assay: Test A postemergence; assay type: in vivo, Lolium multiflorum; details: postemergence, 10 days; for Ryegrass, Italian plant response rating: 125 g ai/ha, 0 to 100 scale, 0 no effect, 100 complete control; for Plant response rating, Ryegrass, Italian: 500 g ai/ha, visual injury, 0 to 100 scale (0 no effect, 100 complete control)
Method in brief: as §2

soybean [19] = assay: Test A postemergence; assay type: in vivo, Glycine max; details: postemergence, 10 days; for Soybean plant response rating: 125 g ai/ha, 0 to 100 scale, 0 no effect, 100 complete control; for Plant response rating, Soybean: 500 g ai/ha, visual injury, 0 to 100 scale (0 no effect, 100 complete control)
Method in brief: as §2

wheat [20] = assay: Test A postemergence; assay type: in vivo, Triticum aestivum; details: postemergence, 10 days; for Wheat plant response rating: 125 g ai/ha, 0 to 100 scale, 0 no effect, 100 complete control; for Plant response rating, Wheat: 500 g ai/ha, visual injury, 0 to 100 scale (0 no effect, 100 complete control)
Method in brief: as §2

galium = assay: Test A postemergence; assay type: in vivo, Galium aparine; details: postemergence, 10 days; for Galium plant response rating: 125 g ai/ha, 0 to 100 scale, 0 no effect, 100 complete control; for Plant response rating, Galium: 500 g ai/ha, visual injury, 0 to 100 scale (0 no effect, 100 complete control)
Method in brief: as §2

horseweed = assay: Test A postemergence; assay type: in vivo, Erigeron canadensis; details: postemergence, 10 days; for Horseweed plant response rating: 125 g ai/ha, 0 to 100 scale, 0 no effect, 100 complete control; for Plant response rating, Horseweed: 500 g ai/ha, visual injury, 0 to 100 scale (0 no effect, 100 complete control)
Method in brief: as §2

barnyardgrass [21] = assay: Test B flooded paddy test; assay type: in vivo, Echinochloa crus-galli; details: 250 g ai/ha, Flood, 13 days, 0 to 100 scale (0 no effect, 100 complete control)
Method in brief: (§3)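 Two-leaf plants, 3 cm flood, in-water application, 13-day greenhouse hold, visual 0–100 rating vs untreated checks.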

ducksalad = assay: Test B flooded paddy test; assay type: in vivo, Heteranthera limosa; details: 250 g ai/ha, Flood, 13 days, 0 to 100 scale (0 no effect, 100 complete control)
Method in brief: as §3

rice = assay: Test B flooded paddy test; assay type: in vivo, Oryza sativa; details: 250 g ai/ha, Flood, 13 days, 0 to 100 scale (0 no effect, 100 complete control)
Method in brief: as §3

sedge, umbrella = assay: Test B flooded paddy test; assay type: in vivo, Cyperus difformis; details: 250 g ai/ha, Flood, 13 days, 0 to 100 scale (0 no effect, 100 complete control)
Method in brief: as §3

[22] = 500 g ai/ha, visual injury after 10 days, 0 is no effect, 100 is complete control

## Cc1ccc(-n2cnc(CO)n2)cc1C(=O)N1C[C@H](C)Oc2c(Cl)cccc21 [Compound 148]
Barnyardgrass [1]; 125 g ai/ha
  Plant response rating, Barnyardgrass: 70
Barnyardgrass [1]; 500 g ai/ha
  Plant response rating, Barnyardgrass: 100
Blackgrass [2]; 125 g ai/ha
  Plant response rating, Blackgrass: 80
Blackgrass [2]; [22]
  Plant response rating, Blackgrass: 90
Corn [3]; 125 g ai/ha
  Plant response rating, Corn: 60
Corn [3]; [22]
  Plant response rating, Corn: 60
foxtail, giant; 125 g ai/ha
  Plant response rating, Foxtail, Giant: 100
foxtail, giant; [22]
  Plant response rating, Foxtail, Giant: 100
Kochia [4]; 125 g ai/ha
  Plant response rating, Kochia: 20
Kochia [4]; [22]
  Plant response rating, Kochia: 70
oat, wild [5]; 125 g ai/ha
  Plant response rating, Oat, Wild: 20
oat, wild [5]; [22]
  Plant response rating, Oat, Wild: 80
pigweed, palmer [6]; 125 g ai/ha
  Plant response rating, Pigweed, Palmer: 100
pigweed, palmer [6]; [22]
  Plant response rating, Pigweed, Palmer: 100
Ragweed [7]; 125 g ai/ha
  Plant response rating, Ragweed: 30
Ragweed [7]; [22]
  Plant response rating, Ragweed: 90
ryegrass, Italian [8]; 125 g ai/ha
  Plant response rating, Ryegrass, Italian: 80
ryegrass, Italian [8]; [22]
  Plant response rating, Ryegrass, Italian: 100
Soybean [9]; 125 g ai/ha
  Plant response rating, Soybean: 70
Soybean [9]; [22]
  Plant response rating, Soybean: 100
Wheat [10]; 125 g ai/ha
  Plant response rating, Wheat: 30
Wheat [10]; [22]
  Plant response rating, Wheat: 90
Barnyardgrass [11]
  Barnyardgrass plant response rating: 30
  Plant response rating, Barnyardgrass: 80
Blackgrass [12]
  Blackgrass plant response rating: 40
  Plant response rating, Blackgrass: 90
Corn [13]
  Corn plant response rating: 80
  Plant response rating, Corn: 90
Kochia [14]
  Kochia plant response rating: 50
  Plant response rating, Kochia: 80
oat, wild [15]
  Oat, Wild plant response rating: 20
  Plant response rating, Oat, Wild: 70
pigweed, palmer [16]
  Pigweed, Palmer plant response rating: 90
  Plant response rating, Pigweed, Palmer: 100
Ragweed [17]
  Ragweed plant response rating: 50
  Plant response rating, Ragweed: 70
ryegrass, Italian [18]
  Ryegrass, Italian plant response rating: 50
  Plant response rating, Ryegrass, Italian: 80
Soybean [19]
  Soybean plant response rating: 100
  Plant response rating, Soybean: 100
Wheat [20]
  Wheat plant response rating: 30
  Plant response rating, Wheat: 70
galium
  Galium plant response rating: 90
  Plant response rating, Galium: 100
horseweed
  Horseweed plant response rating: 50
  Plant response rating, Horseweed: 50
Barnyardgrass [21]
  Plant response rating, Barnyardgrass: 25
ducksalad
  Plant response rating, Ducksalad: 55
rice
  Plant response rating, Rice: 15
sedge, umbrella
  Plant response rating, Sedge, Umbrella: 65

## Cc1ccc(-n2cnc(C(C)(C)O)n2)cc1C(=O)N1C[C@H](C)Oc2c(Cl)cccc21 [Compound 149]
Barnyardgrass [1]; 125 g ai/ha
  Plant response rating, Barnyardgrass: 100
Barnyardgrass [1]; 500 g ai/ha
  Plant response rating, Barnyardgrass: 100
Blackgrass [2]; 125 g ai/ha
  Plant response rating, Blackgrass: 80
Blackgrass [2]; [22]
  Plant response rating, Blackgrass: 90
Corn [3]; 125 g ai/ha
  Plant response rating, Corn: 60
Corn [3]; [22]
  Plant response rating, Corn: 90
foxtail, giant; 125 g ai/ha
  Plant response rating, Foxtail, Giant: 100
foxtail, giant; [22]
  Plant response rating, Foxtail, Giant: 100
Kochia [4]; 125 g ai/ha
  Plant response rating, Kochia: 100
Kochia [4]; [22]
  Plant response rating, Kochia: 100
oat, wild [5]; 125 g ai/ha
  Plant response rating, Oat, Wild: 90
oat, wild [5]; [22]
  Plant response rating, Oat, Wild: 90
pigweed, palmer [6]; 125 g ai/ha
  Plant response rating, Pigweed, Palmer: 90
pigweed, palmer [6]; [22]
  Plant response rating, Pigweed, Palmer: 100
Ragweed [7]; 125 g ai/ha
  Plant response rating, Ragweed: 100
Ragweed [7]; [22]
  Plant response rating, Ragweed: 90
ryegrass, Italian [8]; 125 g ai/ha
  Plant response rating, Ryegrass, Italian: 100
ryegrass, Italian [8]; [22]
  Plant response rating, Ryegrass, Italian: 100
Soybean [9]; 125 g ai/ha
  Plant response rating, Soybean: 100
Soybean [9]; [22]
  Plant response rating, Soybean: 100
Wheat [10]; 125 g ai/ha
  Plant response rating, Wheat: 30
Wheat [10]; [22]
  Plant response rating, Wheat: 90
Barnyardgrass [11]
  Barnyardgrass plant response rating: 50
  Plant response rating, Barnyardgrass: 100
Blackgrass [12]
  Blackgrass plant response rating: 90
  Plant response rating, Blackgrass: 90
Corn [13]
  Corn plant response rating: 90
  Plant response rating, Corn: 100
Kochia [14]
  Kochia plant response rating: 80
  Plant response rating, Kochia: 90
oat, wild [15]
  Oat, Wild plant response rating: 90
  Plant response rating, Oat, Wild: 90
pigweed, palmer [16]
  Pigweed, Palmer plant response rating: 80
  Plant response rating, Pigweed, Palmer: 90
Ragweed [17]
  Ragweed plant response rating: 80
  Plant response rating, Ragweed: 90
ryegrass, Italian [18]
  Ryegrass, Italian plant response rating: 80
  Plant response rating, Ryegrass, Italian: 100
Soybean [19]
  Soybean plant response rating: 100
  Plant response rating, Soybean: 100
Wheat [20]
  Wheat plant response rating: 90
  Plant response rating, Wheat: 90
galium
  Galium plant response rating: 100
  Plant response rating, Galium: 100
horseweed
  Horseweed plant response rating: 50
  Plant response rating, Horseweed: 70
Barnyardgrass [21]
  Plant response rating, Barnyardgrass: 35
ducksalad
  Plant response rating, Ducksalad: 75
rice
  Plant response rating, Rice: 20
sedge, umbrella
  Plant response rating, Sedge, Umbrella: 100
